Measured values taken from patent publication US8431525B2, “Coelenteramide analogs” (JNC Corporation, priority 2009, dated 2013).

Columns and labels:
[1] = Fluorescence spectrum in 50 mM Tris-HCl (pH 7.6) containing 10 mM CaCl2 at 18 μM; assay type: physicochemical; conditions: 10 mM CaCl2, 18 μM
Experimental: The fluorescence quantum yield determined in EXAMPLE 1 was estimated by measuring the fluorescence spectra when the final concentration of coelenteramide analogs was 750 nM. When the final concentration was 750 nM as in EXAMPLE 1, any fluorescence spectrum was not detected for c-14, c-31 and c-36 both in methanol and in a phosphate buffer, and not detected for c-25 in a phosphate buffer, in coelenteramide analogs of the present invention (n.d.: not detected). With respect to c-14, c-31, c-25 and c-36 that no fluorescence spectrum was detected, fluorescence spectra were measured under the same conditions as in EXAMPLE 1 except that the final concentration of these coelenteramide analogs was 30 μM. In a similar method, the fluorescence spectrum for C-4 was also measured at a final concentration of 30 μM. The fluorescence spectrum also for […] was measured in 50 mM Tris-HCl (pH 7.6) containing 10 mM CaCl2 under the same conditions as in EXAMPLE 1 except that the final concentration was 18 μM.
The fluorescence spectrum of c-38 was measured at 25° C. using a JASCO spectrofluorometer FP-6500 (JASCO Corp., Tokyo). Specifically, c-38 was dissolved in 50 mM Tris-HCl (pH 7.6) containing 10 mM CaCl2 at a final concentration of 18 μM using a quartz cell (light path length of 10 mm). […] The average was taken as the fluorescence spectrum.

[2] = Fluorescence spectrum and fluorescence quantum yield of CTMD analogs at 750 nM (Example 1); assay type: physicochemical; conditions: 0.1N H2SO4, ex. 366 nm
Experimental: The fluorescence quantum yield of each CTMD analog synthesized was determined by the following procedure. The fluorescence spectrum was measured at 25° C. using a spectrofluorometer FP-6500 of JASCO (JASCO Corp., Tokyo). Specifically, the CTMD analog was dissolved in methanol (MeOH) or in 67 mM phosphate buffer (PB) (pH 7.4) at a final concentration of 750 nM using a quartz cell (light path length of 10 mm). Measurement was performed 3 times at the excited wavelength of 330 nm, emission/excitation band width of 3 nm, response of 0.5 second and scanning rate of 100 nm/min. The average was taken as the fluorescence spectrum of the compound. The fluorescence quantum yield was determined after the spectrum was corrected.
Quinine sulfate was used as a standard for determining the fluorescence quantum yield. After quinine sulfate (Wako Pure Chemical Industries) was dissolved in 0.1N sulfuric acid aqueous solution, measurement was performed at the excitation light of 366 nm under the conditions for fluorescence measurements described above. The relative fluorescence quantum yield (fluorescence intensity) of the compound was calculated relative to the quantum yield of quinine sulfate as being 0.55.

[3] = 0.1N H2SO4, ex. 366 nm; value taken as reference; cited from earlier work

Row | melting point [°C] | fluorescence capacity ([1]; excited at 330 nm, FIG. 4) | fluorescence ability in an aqueous solution [1] | SMILES | λmax of the standard [2] [nm] | Fluorescence quantum yield of the standard [3]
1 | 194.5 to 196.5 | has the fluorescence capacity |  | O=S(=O)(Cc1ccc(O)cc1)Nc1ncc(-c2ccc(O)cc2)nc1Cc1ccccc1 [c-38, 3-Benzyl-2-(4-hydroxybenzyl)sulfonylamino-5-(4-hydroxyphenyl)pyrazine] |  | 
2 | 101 to 103 |  | had the fluorescence ability | Oc1ccc(CC(=S)Nc2ncc(-c3ccc(O)cc3)nc2Cc2ccccc2)cc1 [c-45, 3-Benzyl-5-(4-hydroxyphenyl)-2-[(4-hydroxyphenyl)thioacetylamino]pyrazine] |  | 
3 |  |  |  | C=C[C@H]1CN2CC[C@H]1C[C@H]2[C@H](O)c1ccnc2ccc(OC)cc12.C=C[C@H]1CN2CC[C@H]1C[C@H]2[C@H](O)c1ccnc2ccc(OC)cc12.O=S(=O)(O)O [quinine, quinine sulfate, reference compound] | 451 | 0.55
